Data taken from ChEMBL document CHEMBL4706569, “Hydroxy-corrole and its gallium(III) complex as new photosensitizer for photodynamic therapy against breast carcinoma” (Eur J Med Chem, 2020).
The source made the active and inactive calls. The calls are words filed in the database; no cut-off is given here.

What was measured:
[1] = Absorption property of the compound in DMF assessed as soret band absorption wavelength at 1 uM by UV-visible spectrophotometric method; format: physicochemical
[2] = Absorption property of the compound in DMF assessed as soret band molar extinction coefficient at 1 uM by UV-visible spectrophotometric method; format: physicochemical
[3] = Absorption property of the compound in DMF assessed as Q band absorption wavelength at 1 uM by UV-visible spectrophotometric method; format: physicochemical
[4] = Absorption property of the compound in DMF assessed as Q band molar extinction coefficient at 1 uM by UV-visible spectrophotometric method; format: physicochemical
[5] = Induction of singlet oxygen generation in DMF solution assessed as singlet oxygen quantum yield at 1 uM irradiated with 625 +/- 2 nanometer laser light by DPBF-based assay; format: functional
MDA-MB-231 [6] = experiment: Phototoxicity against human MDA-MB-231 cells assessed as reduction in cell viability preincubated for 4 hrs followed by irradiation with 0.3 W/cm2 of 625 +/- 2 nanometer LED light for 1 hr and measured after 42 hrs by MTT assay; format: functional, cell-based; settings: MDA-MB-231, light or radiation study
[7] = Dark toxicity in human MDA-MB-231 cells assessed as reduction in cell viability by MTT assay; format: cell-based
[8] = Phototoxicity index, ratio of IC50 for cytotoxicity against human MDA-MB-231 cells measured under dark condition to IC50 for phototoxicity against human MDA-MB-231 cells upon LED light irradiation
4T1 = experiment: Phototoxicity against mouse 4T1 cells assessed as reduction in cell viability preincubated for 4 hrs followed by irradiation with 0.3 W/cm2 of 625 +/- 2 nanometer LED light for 1 hr and measured after 42 hrs by MTT assay; format: functional, cell-based; settings: 4T1, light or radiation study
[9] = Dark toxicity in mouse 4T1 cells assessed as reduction in cell viability by MTT assay; format: cell-based
[10] = Phototoxicity index, ratio of IC50 for cytotoxicity against mouse 4T1 cells measured under dark condition to IC50 for phototoxicity against mouse 4T1 cells upon LED light irradiation
HUVEC = experiment: Phototoxicity against HUVEC assessed as reduction in cell viability preincubated for 4 hrs followed by irradiation with 0.3 W/cm2 of 625 +/- 2 nanometer LED light for 1 hr and measured after 42 hrs by MTT assay; format: cell-based; settings: Homo sapiens, light or radiation study
[11] = Dark toxicity in HUVEC assessed as reduction in cell viability by MTT assay; format: cell-based; settings: human
[12] = Phototoxicity index, ratio of IC50 for cytotoxicity against HUVEC measured under dark condition to IC50 for phototoxicity against HUVEC upon LED light irradiation; settings: human, read-out: Ratio IC50
[13] = Selectivity index, ratio of IC50 for HUVEC in presence of light irradiation to IC50 for human MDA-MB-231 cells in presence of light irradiation; format: toxicity; settings: HUVEC and MDA-MB-231 cells, read-out: Ratio IC50
[14] = Absorption property of the compound in DMF assessed as soret band wavelength molar absorption coefficient at 1 uM by UV-visible spectrophotometric method; format: physicochemical
[15] = Absorption property of the compound in DMF assessed as soret band molar attenuation coefficient at 1 uM by UV-visible spectrophotometric method; format: physicochemical
[16] = Drug uptake in human MDA-MB-231 cells at 10 uM incubated for 4 hrs by Hoechst 33342 staining based fluorescence microscopy; format: ADME, cell-based; settings: mda-mb-231, 4 h
[17] = Drug localization in mitochondria of human MDA-MB-231 cells at 20 uM incubated for 4 hrs by Mito-tracker dye based confocal laser scanning microscopy; format: ADME; settings: mda-mb-231, 4 h
[18] = Drug localization in lysosome of human MDA-MB-231 cells at 20 uM incubated for 4 hrs by Lyso-tracker dye based confocal laser scanning microscopy; format: ADME, subcellular; settings: mda-mb-231, 4 h
MDA-MB-231 [19] = experiment: Induction of ROS generation in human MDA-MB-231 cells at 2.5 uM in dark by DCFH-DA staining based fluorescence microscopy; format: functional, cell-based
MDA-MB-231 [20] = experiment: Induction of ROS generation in human MDA-MB-231 cells at 2.5 uM preincubated for 4 hrs followed by 625 +/- 2 nanometer LED light irradiation for 1 hr and measured after 18 hrs by DCFH-DA staining based fluorescence microscopy; format: functional, cell-based; settings: time 23.0 hrs
MDA-MB-231 [21] = experiment: Induction of mitochondrial depolarization in human MDA-MB-231 cells at 2.5 uM in dark by JC1 staining based fluorescence microscopy; format: functional, cell-based
MDA-MB-231 [22] = experiment: Induction of mitochondrial depolarization in human MDA-MB-231 cells at 2.5 uM preincubated for 4 hrs followed by 625 +/- 2 nanometer LED light irradiation for 1 hr and measured after 18 hrs by JC1 staining based fluorescence microscopy; format: functional, cell-based; settings: time 23.0 hrs
MDA-MB-231 [23] = experiment: Induction of cell cycle arrest in human MDA-MB-231 cells assessed as accumulation at G1 phase at 5 uM measured after 24 hrs under dark condition by RNase A/propidium iodide staining based flow cytometry analysis (reference value: 47.5 %); format: functional
MDA-MB-231 [24] = experiment: Induction of cell cycle arrest in human MDA-MB-231 cells assessed as accumulation at sub-G1 phase at 5 uM measured after 24 hrs under dark condition by RNase A/propidium iodide staining based flow cytometry analysis (reference value: 2.56 %); format: functional
MDA-MB-231 [25] = experiment: Induction of cell cycle arrest in human MDA-MB-231 cells assessed as accumulation at S phase at 5 uM measured after 24 hrs under dark condition by RNase A/propidium iodide staining based flow cytometry analysis (reference value: 24.8 %); format: functional
MDA-MB-231 [26] = experiment: Induction of cell cycle arrest in human MDA-MB-231 cells assessed as accumulation at G2 phase at 5 uM measured after 24 hrs under dark condition by RNase A/propidium iodide staining based flow cytometry analysis (reference value: 24.4 %); format: functional
MDA-MB-231 [27] = experiment: Induction of cell cycle arrest in human MDA-MB-231 cells assessed as accumulation at sub-G1 phase at 5 uM preincubated with 625 +/- 2 nanometer LED light irradiation for 1 hrs and measured after 24 hrs by RNase A/propidium iodide staining based flow cytometry analysis (reference value: 3.93 %); format: functional; settings: time 25 hrs
MDA-MB-231 [28] = experiment: Induction of cell cycle arrest in human MDA-MB-231 cells assessed as accumulation at G1 phase at 5 uM preincubated with 625 +/- 2 nanometer LED light irradiation for 1 hrs and measured after 24 hrs by RNase A/propidium iodide staining based flow cytometry analysis (reference value: 43.6 %); format: functional; settings: time 25 hrs
MDA-MB-231 [29] = experiment: Induction of cell cycle arrest in human MDA-MB-231 cells assessed as accumulation at S phase at 5 uM preincubated with 625 +/- 2 nanometer LED light irradiation for 1 hrs and measured after 24 hrs by RNase A/propidium iodide staining based flow cytometry analysis (reference value: 29.0 %); format: functional; settings: time 25 hrs
MDA-MB-231 [30] = experiment: Induction of cell cycle arrest in human MDA-MB-231 cells assessed as accumulation at G2 phase at 5 uM preincubated with 625 +/- 2 nanometer LED light irradiation for 1 hrs and measured after 24 hrs by RNase A/propidium iodide staining based flow cytometry analysis (reference value: 22.1 %); format: functional; settings: time 25 hrs
MDA-MB-231 [31] = experiment: Induction of apoptosis in human MDA-MB-231 cells assessed as viable cells at 2.5 uM under dark condition by annexin V-FITC/PI based flow cytometric analysis (reference value: 99.0 %); format: functional; settings: read-out: Activity
MDA-MB-231 [32] = experiment: Induction of apoptosis in human MDA-MB-231 cells assessed as early apoptotic cells at 2.5 uM under dark condition by annexin V-FITC/PI based flow cytometric analysis (reference value: 0 %); format: functional
MDA-MB-231 [33] = experiment: Induction of apoptosis in human MDA-MB-231 cells assessed as late apoptotic cells at 2.5 uM under dark condition by annexin V-FITC/PI based flow cytometric analysis (reference value: 0.67 %); format: functional
MDA-MB-231 [34] = experiment: Induction of apoptosis in human MDA-MB-231 cells assessed as necrotic cells at 2.5 uM under dark condition by annexin V-FITC/PI based flow cytometric analysis (reference value: 0.36 %); format: functional
MDA-MB-231 [35] = experiment: Induction of apoptosis in human MDA-MB-231 cells assessed as viable cells at 2.5 uM preincubated for 4 hrs followed by 625 +/- 2 nanometer LED light irradiation for 1 hr and measured after 18 hrs by annexin V-FITC/PI based flow cytometric analysis (reference value: 98.0 %); format: functional; settings: MDA-MB-231, light or radiation study, time 23 hrs, read-out: Activity
MDA-MB-231 [36] = experiment: Induction of apoptosis in human MDA-MB-231 cells assessed as early apoptotic cells at 2.5 uM preincubated for 4 hrs followed by 625 +/- 2 nanometer LED light irradiation for 1 hr and measured after 18 hrs by annexin V-FITC/PI based flow cytometric analysis (reference value: 0.27 %); format: functional; settings: time 23 hrs
MDA-MB-231 [37] = experiment: Induction of apoptosis in human MDA-MB-231 cells assessed as late apoptotic cells at 2.5 uM preincubated for 4 hrs followed by 625 +/- 2 nanometer LED light irradiation for 1 hr and measured after 18 hrs by annexin V-FITC/PI based flow cytometric analysis (reference value: 1.34 %); format: functional; settings: time 23 hrs
MDA-MB-231 [38] = experiment: Induction of apoptosis in human MDA-MB-231 cells assessed as necrotic cells at 2.5 uM preincubated for 4 hrs followed by 625 +/- 2 nanometer LED light irradiation for 1 hr and measured after 18 hrs by annexin V-FITC/PI based flow cytometric analysis (reference value: 0.41 %); format: functional; settings: time 23 hrs
[39] = Drug uptake in human MDA-MB-231 cells at 10 uM by flow cytometric analysis; format: ADME, cell-based; settings: mda-mb-231, 10 µM, TDE = time-dependent effect

## Oc1cccc(-c2c3nc(c(-c4c(F)c(F)c(F)c(F)c4F)c4ccc([nH]4)c4ccc([nH]4)c(-c4c(F)c(F)c(F)c(F)c4F)c4ccc2[nH]4)C=C3)c1
[1]
  Activity: 428 nm
[2]
  Activity: 5.12 log
[3]
  Activity: 633 nm
[4]
  Activity: 4.61 log
[5]
  Activity: 0.46
MDA-MB-231 [6]
  IC50: 1.64 µM
[7]
  IC50: > 100 µM
[8]
  Ratio IC50: >60.98
4T1
  IC50: 0.57 µM
[9]
  IC50: > 100 µM
[10]
  Ratio IC50: >175.44
HUVEC
  IC50: 0.89 µM
[11]
  IC50: > 100 µM
[12]
  selectivity ratio: > 112
[13]
  selectivity ratio: 0.54
[14]
  Activity: 443 nm
[15]
  Activity: 5.1 log

## Oc1ccccc1-c1c2nc(c(-c3c(F)c(F)c(F)c(F)c3F)c3ccc([nH]3)c3ccc([nH]3)c(-c3c(F)c(F)c(F)c(F)c3F)c3ccc1[nH]3)C=C2
[1]
  Activity: 425 nm
[2]
  Activity: 5.11 log
[3]
  Activity: 629 nm
[4]
  Activity: 4.57 log
[5]
  Activity: 0.45
MDA-MB-231 [6]
  IC50: 5.81 µM
[7]
  IC50: 50.8 µM
[8]
  Ratio IC50: 8.75
4T1
  IC50: 0.46 µM
[9]
  IC50: > 100 µM
[10]
  Ratio IC50: >217.39
HUVEC
  IC50: 4.75 µM
[11]
  IC50: > 100 µM
[12]
  selectivity ratio: > 21.1
[13]
  selectivity ratio: 0.82
[14]
  Activity: 441 nm
[15]
  Activity: 5.08 log

## Oc1cccc(-c2c3nc(c(-c4cccc(O)c4)c4ccc([nH]4)c(-c4cccc(O)c4)c4nc(c(-c5cccc(O)c5)c5ccc2[nH]5)CC4)C=C3)c1 [TEMOPORFIN]
MDA-MB-231 [6]
  IC50: 0.87 µM
[7]
  IC50: 33.4 µM
[8]
  Ratio IC50: 38.41
4T1
  IC50: 0.05 µM
[9]
  IC50: 38 µM
[10]
  Ratio IC50: 760.2
HUVEC
  IC50: 1.5 µM
[11]
  IC50: > 100 µM
[12]
  selectivity ratio: > 66.7
[13]
  selectivity ratio: 1.72

## Oc1ccc(-c2c3nc(c(-c4c(F)c(F)c(F)c(F)c4F)c4ccc([nH]4)c4ccc([nH]4)c(-c4c(F)c(F)c(F)c(F)c4F)c4ccc2[nH]4)C=C3)cc1
[1]
  Activity: 427 nm
[2]
  Activity: 5.12 log
[3]
  Activity: 633 nm
[4]
  Activity: 4.62 log
[5]
  Activity: 0.55
MDA-MB-231 [6]
  IC50: 0.42 µM
[7]
  IC50: > 100 µM
[8]
  Ratio IC50: >238.1
4T1
  IC50: 0.3 µM
[9]
  IC50: > 100 µM
[10]
  Ratio IC50: >333.33
HUVEC
  IC50: 9.32 µM
[11]
  IC50: > 100 µM
[12]
  selectivity ratio: > 10.9
[13]
  selectivity ratio: 22.2
[16]
  Drug uptake: Active
[17]
  Drug uptake: Active
[18]
  Drug uptake: Active
MDA-MB-231 [19]
  Activity: inactive
MDA-MB-231 [20]
  Activity: Active
MDA-MB-231 [21]
  Activity: inactive
MDA-MB-231 [22]
  Activity: Active
MDA-MB-231 [23]
  Activity: 46.7%
MDA-MB-231 [24]
  Activity: 2.84%
MDA-MB-231 [25]
  Activity: 23.2%
MDA-MB-231 [26]
  Activity: 26.1%
MDA-MB-231 [27]
  Activity: 38.6%
MDA-MB-231 [28]
  Activity: 25.1%
MDA-MB-231 [29]
  Activity: 18.1%
MDA-MB-231 [30]
  Activity: 17.5%
MDA-MB-231 [31]
  viability at 2.5 µM: 98.3%
MDA-MB-231 [32]
  Activity: 0.013%
MDA-MB-231 [33]
  Activity: 1.01%
MDA-MB-231 [34]
  Activity: 0.72%
MDA-MB-231 [35]
  viability at 2.5 µM: 64.5%
MDA-MB-231 [36]
  Activity: 0.095%
MDA-MB-231 [37]
  Activity: 30.1%
MDA-MB-231 [38]
  Activity: 5.29%
[14]
  Activity: 443 nm
[15]
  Activity: 5.09 log
[39]
  Drug uptake: Tde
